A short description of assay [1]: Body weight loss in high-fat diet C57bl/6 mice. It is filed as in vivo. To be noted: once daily, 28 days, oral gavage, male C57bl/6 mice on high-fat diet, BW loss relative to pretreatment. The text has this: Ten to twelve weeks old male C57bl/6 mice are obtained from commercial vendors, and placed on high-fat diet (60% kcal fat) for at least 15 weeks. Treatment with MetAP2 inhibitors is initiated when the average body weight reaches approximately 50 g. The MetAP2 inhibitors are formulated in an aqueous solution of 0.5% methyl cellulose and administered through oral gavage. Control animals receive the equivalent volume of aqueous 0.5% methyl cellulose solution without a MetAP2 inhibitor. Body weight (BW) and food intake are recorded daily, and efficacy is calculated individually as a percentage of BW loss relative to the pretreatment values. Depending on the study design, the treatment is continued for 12, 14 or 28 days. In some studies, indirect calorimetry or body composition are determined at the end of the treatment.
TABLE 2 lists body weight loss (BWL) in mice following treatment with some of the compounds shown in the examples. The compounds shown in TABLE 2 were tested in accordance with the BWL protocol described in the specification beginning at page 36, using the dose, dosing regimen (frequency), and treatment duration indicated in table.

Assay [2] deals with T1, MetAP2 (Homo sapiens, UniProt P50579). The assay is described as follows: MetAP2 cellular activity: Western blotting of NMet-14-3-3γ in HUVEC cells. Type of assay: cell-based. Also noted: host or cells: HUVEC. The note with it: 24 hours, ratio of unprocessed N-Met14-3-3γ over β-actin, read-out: MetAP2 Cell pEC50 (converted). The method, then: HUVEC cells (Lonza) are seeded in 96-well tissue culture microplates and cultured for 24 hours prior to addition of test compounds (11 point range of serial dilutions) or DMSO vehicle. After 24 hours, whole cell extracts are prepared by lysing cells in cell extraction buffer (Cell Signaling) containing protease and phosphatase inhibitors (Calbiochem). Insoluble material is removed by centrifugation and samples are diluted and boiled in SDS-PAGE buffer. Proteins are resolved by SDS-PAGE and transferred to PVDF membranes. Membranes are blocked then incubated with the appropriate primary antibodies, NMet-14-3-3γ (Novus) and β-actin (Sigma), followed by incubation with secondary IRDye 680- or 800CW-conjugated antibodies (Li-Cor). Membranes are scanned on the Odyssey (Li-Cor) and signals corresponding to N-Met14-3-3γ and β-actin are quantified using LiCor software. Compound EC50s are obtained by curve-fitting the ratios of unprocessed N-Met14-3-3γ protein signal over β-actin protein signal using XLfit4 Microsoft Excel curve-fitting software and are reported as pEC50, i.e., −log(EC50), where EC50 is the molar concentration at 50% effective (maximal) response.
TABLE 1 lists MetAP2 inhibition for some of the compounds shown in the examples, where larger pIC50 and pEC50 values represent higher potency. The compounds shown in TABLE 1 were tested in accordance with the enzyme assay (pIC50) described in the specification beginning at page 35, in which the MetAP2 enzyme is complexed with cobalt or manganese ions, and in accordance with the cellular assay (pEC50) described in the specification beginning at page 36.
(In western blotting, separated proteins are transferred to a membrane and probed.)

The target in assay [3] is T1, MetAP2. The assay is described as follows: Enzyme assay: inhibition of MetAP2 (Met-AMC substrate, fluorescence). Type of assay: biochemical. Also noted: made in house; host or cells: Spodoptera frugiperda Sf9 cells (baculovirus, pFastBac). The method, then:
DNA encoding the full-length sequence of human MetAP2 enzyme is amplified by PCR and cloned into a pFastBac expression vector (Invitrogen). Recombinant baculovirus incorporating the MetAP2 construct is generated by transposition using the Bac-to-Bac system (Invitrogen). The expression of recombinant protein is carried out by infection of Spodoptera frugiperda Sf9 cells (Invitrogen) in 5 L Wave Bioreactors (Wave Biotech). Recombinant protein is isolated from cellular extracts by binding to an SP Hitrap Fast Flow or SP Sepharose (Sigma) column, and the protein is eluted using a NaCl gradient. Partially purified extracts of MetAP2 are further purified by an AKTA FPLC over a Superdex-200 column (GE). The purity of MetAP2 protein is determined on denaturing SDS-PAGE gel. Purified MetAP2 protein is concentrated to a final concentration of 17 mg/mL or 2.5 mg/mL. The protein is stored at −78° C. in a buffer containing 10 mM HEPES pH 7.4, 150 mM NaCl, and 1 mM CoCl2 or in a buffer containing 20 mM HEPES pH 7.4, 120 mM NaCl, and 5 mM MnCl2.
The inhibition of MetAP2 is determined using a black 384-well-plate format under the following reaction conditions: 50 mM Hepes pH 7.5, 100 mM NaCl, 10 μM MnCl2 or 10 μM CoCl2, 0.005% Brij35®, 1 mM TCEP, 1% DMSO. To initiate the assay, 4 μL of 5 to 50 nM MetAP2 enzyme solution (enzyme final concentration is 2 to 20 nM) is added to each well, followed by the addition of 2 μL of the test compound (2.5-fold serial dilutions for 11 data points for each test compound) in a buffer solution containing 5% DMSO. Next, 4 μL of a substrate solution (2.5×Km of Met-AMC) is added to each well of the plate (final substrate concentration at Km value). The reaction rate is monitored by reading fluorescence at 460 nm with excitation wavelength at 330 nm for 10 to 30 minutes using a fluorescence plate reader. The results for each well are expressed as percent inhibition and calculated using the equation: […]

Assay [4] in a line: Hypoglycemic activity in KKA^y mice. It is filed as in vivo. To be noted: 10 mg/kg once daily oral gavage, 4-week treatment, male KKA^y mice, mean±SD of 8 animals, p < 0.025 vs. control. The method, then:
Six-week-old male KKA^y mice are obtained from commercial vendors and placed on standard chow. Treatment with a MetAP2 inhibitor is initiated after 8-day acclimization. The MetAP2 inhibitor is formulated in an aqueous 0.5% methylcellulose solution, which is administered once daily through oral gavage. Control animals are treated with the equivalent volume of aqueous 0.5% methylcellulose solution without the compound. After 4 weeks, blood is collected from the tail vein of each of the mice. Glycated hemoglobin levels are measured using a Tosoh HLC-723G8 automated glycohemoglobin analyzer, and plasma glucose levels are measured using a Hitachi model 7180 automated glucose analyzer. For evaluation of the hypoglycemic activity of the MetAP2 inhibitor, statistical differences between control- and compound-treated groups are analyzed using a one-tailed Williams test.
TABLE 3 lists glycated hemoglobin (GHb) and plasma glucose (PG) levels in KKA^y mice after a 4-week treatment with the compound shown in Example 1. The study was conducted in accordance with the protocol described in the specification beginning at page 37, using the dose indicated in table. Values are indicated by mean±standard deviation of 8 animals in each group.

[5] abbreviates: MetAP2 enzyme complexed with cobalt ions, read-out: MetAP2 Co pIC50 (converted).

The results in this text go back to patent publication US9827255B2, “Fumagillol derivatives” (Takeda Pharmaceutical Company Limited, priority 2014, dated 2017).

Each structure is given as a SMILES string. Read-outs that look alike come from different tables or passages of the source.

T1 sequence (P50579 whole entry): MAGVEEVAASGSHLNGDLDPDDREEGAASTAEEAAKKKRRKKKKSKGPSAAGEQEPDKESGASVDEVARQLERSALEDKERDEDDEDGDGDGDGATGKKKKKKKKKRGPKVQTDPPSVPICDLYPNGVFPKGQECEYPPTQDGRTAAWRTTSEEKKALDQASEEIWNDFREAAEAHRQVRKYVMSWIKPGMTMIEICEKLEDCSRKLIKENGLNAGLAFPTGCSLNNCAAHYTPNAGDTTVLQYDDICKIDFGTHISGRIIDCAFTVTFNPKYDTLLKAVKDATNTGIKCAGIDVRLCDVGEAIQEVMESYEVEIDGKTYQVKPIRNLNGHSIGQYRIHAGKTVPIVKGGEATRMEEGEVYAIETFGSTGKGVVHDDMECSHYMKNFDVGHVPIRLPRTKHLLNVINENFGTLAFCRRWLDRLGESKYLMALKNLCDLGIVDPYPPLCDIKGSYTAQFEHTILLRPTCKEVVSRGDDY

On to `CCOP(=O)(CCO[C@@H]1CC[C@]2(CO2)[C@@H]([C@@]2(C)O[C@@H]2CC=C(C)C)[C@@H]1OC)OCC` [Example 5, diethyl (2-(((3R,4S,5S,6R)-5-methoxy-4-((2R,3R)-2-methyl-3-(3-methylbut-2-en-1-yl)oxiran-2-yl)-1-oxaspiro[2.5]octan-6-yl)oxy)ethyl)phosphonate], for which, in assay [1] (1 mg/kg), the BWL is on record as 18%. Also, on MetAP2 [2], the EC50 was 6.17 nM. The IC50 at MetAP2 [3] (setting [5]) is 97.7 nM.
As to `CO[C@@H]1[C@H](OCCP(=O)(c2ccccc2)c2ccccc2)CC[C@]2(CO2)[C@H]1[C@@]1(C)O[C@@H]1CC=C(C)C` [Example 1, (2-(((3R,4S,5S,6R)-5-methoxy-4-((2R,3R)-2-methyl-3-(3-methylbut-2-en-1-yl)oxiran-2-yl)-1-oxaspiro[2.5]octan-6-yl)oxy)ethyl)diphenylphosphine oxide], the BWL in assay [1] (3 mg/kg) turned out to be 18%. The “GHb (glycated hemoglobin)” value in assay [4] (control 6.8 ± 0.4) turned out to be 5.6 ± 0.4 %. Also, the “PG (plasma glucose)” value in assay [4] (control 436.6 ± 64.4) amounted to 296.5 ± 77.4 mg/dL. On MetAP2 [2], the EC50 was 4.79 nM. Besides, the IC50 was 44.7 nM at MetAP2 [3] (setting [5]) and 200 nM on MetAP2 [3] (MetAP2 enzyme complexed with manganese ions, read-out: MetAP2 Mn pIC50 (converted)).
Turning to `CO[C@@H]1[C@H](OCCP(=O)(OC)OC)CC[C@]2(CO2)[C@H]1[C@@]1(C)O[C@@H]1CC=C(C)C` [Example 4, dimethyl (2-(((3R,4S,5S,6R)-5-methoxy-4-((2R,3R)-2-methyl-3-(3-methylbut-2-en-1-yl)oxiran-2-yl)-1-oxaspiro[2.5]octan-6-yl)oxy)ethyl)phosphonate], at MetAP2 [2], the EC50 is 3.47 nM.
For the molecule `CO[C@@H]1[C@H](OCCP(=O)(c2ccc(C)cc2)c2ccc(C)cc2)CC[C@]2(CO2)[C@H]1[C@@]1(C)O[C@@H]1CC=C(C)C` [Example 2, (2-(((3R,4S,5S,6R)-5-methoxy-4-((2R,3R)-2-methyl-3-(3-methylbut-2-en-1-yl)oxiran-2-yl)-1-oxaspiro[2.5]octan-6-yl)oxy)ethyl)di-p-tolylphosphine oxide], at MetAP2 [2], the EC50 was 6.61 nM.
